Experiment [1] concerns the target β-Glucosidase (P. chrysosp.) (Phanerodontia chrysosporium, UniProt O74203). The experiment in a line: 4-nitrophenyl β-D-glucopyranoside hydrolysis, absorbance […] nm. The format is biochemical. Particulars: pH 6.0, 37 °C, phosphate buffer, 10% DMSO.
A further experiment has as its target T1, α-Glucosidase (A. niger) (Aspergillus niger, UniProt P56526).
T1 sequence (P56526 26-985): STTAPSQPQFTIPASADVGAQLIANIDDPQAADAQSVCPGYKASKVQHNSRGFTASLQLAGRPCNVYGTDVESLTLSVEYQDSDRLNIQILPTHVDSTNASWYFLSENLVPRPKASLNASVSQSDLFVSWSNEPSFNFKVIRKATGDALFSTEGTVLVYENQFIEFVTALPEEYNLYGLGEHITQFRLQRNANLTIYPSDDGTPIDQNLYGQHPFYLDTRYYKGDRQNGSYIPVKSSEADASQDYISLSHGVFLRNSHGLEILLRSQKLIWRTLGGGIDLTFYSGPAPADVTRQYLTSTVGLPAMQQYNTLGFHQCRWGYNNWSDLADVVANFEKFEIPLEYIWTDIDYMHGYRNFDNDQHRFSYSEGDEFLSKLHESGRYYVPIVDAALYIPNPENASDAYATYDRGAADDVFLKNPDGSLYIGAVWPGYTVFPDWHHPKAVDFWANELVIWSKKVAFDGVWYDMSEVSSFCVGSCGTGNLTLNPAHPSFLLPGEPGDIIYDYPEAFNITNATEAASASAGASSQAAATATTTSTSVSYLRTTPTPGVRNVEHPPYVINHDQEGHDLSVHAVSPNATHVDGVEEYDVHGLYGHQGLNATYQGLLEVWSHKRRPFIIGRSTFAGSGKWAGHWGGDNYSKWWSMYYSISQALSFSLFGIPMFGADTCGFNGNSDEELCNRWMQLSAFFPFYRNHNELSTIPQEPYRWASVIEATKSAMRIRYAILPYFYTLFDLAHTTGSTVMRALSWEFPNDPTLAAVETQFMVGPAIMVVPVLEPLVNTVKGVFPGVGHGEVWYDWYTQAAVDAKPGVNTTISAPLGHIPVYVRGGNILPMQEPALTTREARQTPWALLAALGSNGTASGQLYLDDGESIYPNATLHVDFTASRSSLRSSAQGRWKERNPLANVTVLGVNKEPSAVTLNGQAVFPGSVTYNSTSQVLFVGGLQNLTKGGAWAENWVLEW
Briefly: 4-nitrophenyl α-D-glucopyranoside hydrolysis, absorbance […] nm. It is filed as biochemical.

Experiment [2] has as its target α-Glucosidase (B. stearoth.). The experiment is described as above. It is filed as biochemical, Geobacillus stearothermophilus. The settings on record: read-out: 6; pH 6.0, 37 °C, phosphate buffer, 10% DMSO; competitive.
Experiment [3] concerns the target β-Glucosidase (A. oryzae). The experiment in a line: 4-nitrophenyl β-D-glucopyranoside hydrolysis, absorbance […] nm. It is filed as biochemical, Aspergillus oryzae. Particulars: read-out: 19; pH 6.0, 37 °C, phosphate buffer, 10% DMSO.

The structures appear in SMILES notation. Like-named read-outs stand apart in the source and are kept apart here.

Chain of β-Glucosidase (P. chrysosp.) (O74203 22-823): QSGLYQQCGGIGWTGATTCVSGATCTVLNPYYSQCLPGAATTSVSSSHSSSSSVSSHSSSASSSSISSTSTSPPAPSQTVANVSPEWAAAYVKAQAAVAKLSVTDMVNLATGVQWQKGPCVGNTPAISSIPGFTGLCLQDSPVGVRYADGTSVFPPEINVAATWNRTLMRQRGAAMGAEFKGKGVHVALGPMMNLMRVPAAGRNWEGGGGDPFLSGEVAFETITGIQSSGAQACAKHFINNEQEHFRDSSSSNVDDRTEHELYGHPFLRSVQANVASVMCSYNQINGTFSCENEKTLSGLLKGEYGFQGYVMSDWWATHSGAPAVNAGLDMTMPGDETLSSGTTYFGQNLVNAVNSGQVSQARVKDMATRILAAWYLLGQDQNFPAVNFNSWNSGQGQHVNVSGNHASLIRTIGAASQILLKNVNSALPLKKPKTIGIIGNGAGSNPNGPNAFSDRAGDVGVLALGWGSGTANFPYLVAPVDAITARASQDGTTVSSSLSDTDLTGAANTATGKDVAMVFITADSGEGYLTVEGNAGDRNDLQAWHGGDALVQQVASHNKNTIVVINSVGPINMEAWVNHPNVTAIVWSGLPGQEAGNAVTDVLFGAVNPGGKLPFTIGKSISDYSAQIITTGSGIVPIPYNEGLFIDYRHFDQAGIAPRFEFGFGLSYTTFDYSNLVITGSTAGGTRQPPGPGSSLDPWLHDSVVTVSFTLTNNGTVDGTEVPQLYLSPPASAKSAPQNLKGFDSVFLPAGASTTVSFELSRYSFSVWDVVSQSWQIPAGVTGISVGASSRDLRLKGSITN

On to `OC[C@@H]1[C@@H](O)[C@H](O)[C@@H](O)CN1Cc1c2ccccc2c(Cl)c2ccccc12` [compound 6, N-(10-Chloro-9-anthracenemethyl)-1-deoxynojirimycin], for which the Ki was 2.7 µM in experiment [1] (read-out: 6, competitive); 1.04 µM at α-Glucosidase (A. niger); 93 µM in experiment [2].

For `OC[C@@H]1[C@@H](O)[C@H](O)[C@@H](O)CN1CCc1c2ccccc2c(Cl)c2ccccc12` [compound 12, 1-(2-(10-Chloroanthracen-9-yl)ethyl)-1-deoxynojirimycin], the Ki in experiment [1] (read-out: 12) was 0.0062 µM.

For the molecule `OC[C@@H]1[C@@H](O)[C@H](O)[C@@H](O)CN1CCCc1c2ccccc2c(Cl)c2ccccc12` [compound 15, 1-(3-(10-Chloroanthracen-9-yl)propyl)-1-deoxynojirimycin], in experiment [1] (read-out: 15), the Ki worked out at 0.0103 µM.

In the case of `O=C1[C@H](O)[C@@H](O)[C@H](O)[C@@H](CO)N1Cc1c2ccccc2c(Cl)c2ccccc12` [compound 19, N-(10-Chloro-9-anthracenemethyl)-D-glucono-δ-lactam], the Ki in experiment [1] (read-out: 19) turned out to be 24.3 µM; in experiment [3], 169 µM; at α-Glucosidase (A. niger) it was 14.4 µM.

The values are drawn from paper PMC5672842 (Chemical Science, 2017).
